Reference: patent publication US5206415A, “Tricyclic steroid analogs” (priority 1991, dated 1993)
Counter-ions that a name gives are not always drawn. Like-named read-outs stand apart in the source and are kept apart here.

Tests used:
[1] = test system: GABA-induced chloride currents; details: electrophysiological experiments; cited from earlier work
[2] = cited from earlier work
rat synaptoneurosomes = details: cited from earlier work
[3] = test system: GABA receptor channel complex; details: cited from earlier work
[4] = test system: GABA receptor/chloride ionophore complex; test: Potentiation of GABA currents by tricyclic analogs (patch clamp, cultured hippocampal neurons); format: cell-based, albino rat; details: 1 μM GABA, mean ± SEM (N)
Description: (§1) Under halothane anesthesia, 1 day old albino rat pups are sacrificed by rapid decapitation and the hippocampi are dissected and dissociated with papain (1 mg/ml in oxygenated L-15 media for 30 min at 35° C.) and mechanical trituration (18). Cells are plated on collagen coated-culture dishes at a density of 300,000 cells/ml. The growth media consists of Eagles Minimal Essential Media (MEM) supplemented with 5% fetal calf serum, 5% horse serum, 17 mM glucose, 0.4 mM glutamine, 50 U/ml penicillin and 50 μg/ml streptomycin. After three days in culture cells are treated with 10 μM cytosine arabinoside (ARA-C) to suppress glial growth. Cells are subsequently fed with fresh media once per week.
(§2) For recording purposes the growth media is replaced with a solution containing (in mM): 140 NaCl, 5 KCl, 2 CaCl2, 1 MgCl2, 10 glucose, 10 HEPES, 0.001 tetrodotoxin, pH=7.3. Neurons are studied using patch clamp recording techniques (12) with pipettes containing (in mM): 145 CsCl, 5 BAPTA, 5 NaCl, 0.5 CaCl2, 2 MgATP, 10 HEPES, pH=7.3. This CsCl intracellular solution sets the Cl^-1 equilibrium potential (Ecl) at 0 mV (i.e. symmetric transmembrane concentrations of Cl^-). This allows reliable recording of Cl^-1 currents without concern for shifts in transmembrane Cl^-1 concentration which can alter GABA responses during longer agonist exposures (1). […]

[5] = test system: recombinant human GABAA receptors; details: single channel recordings; cited from earlier work
[6] = test system: GABA receptor/chloride ionophore complex; test: Direct Cl^- current activation (patch clamp, cultured hippocampal neurons); format: cell-based, albino rat; details: numeric bound
Description: as §1, §2

benzodiazepine receptors = details: several studies; cited from earlier work
[7] = test system: GABA-mediated neuronal inhibition; details: cited from earlier work
[8] = two different animal models of anxiety; cited from earlier work
[9] = rats; cited from earlier work
[10] = test system: GABA-mediated inhibitory synaptic responses; details: olfactory cortical slices; cited from earlier work
GABA-gated channels = details: fluctuation analysis; cited from earlier work
GABAA receptors [11] = details: cultured hippocampal neurons; cited from earlier work
GABAA receptors [12] = details: cited from earlier work
GABA currents = details: various CNS neurons, cited from earlier work
picrotoxin site = details: cited from earlier work
GABAA channels = details: single channel; cited from earlier work
[13] = in vivo; cited from earlier work

Compound: CC(=O)[C@H]1CC[C@H]2[C@@H]3CC[C@@H]4C[C@H](O)CC[C@]4(C)[C@H]3CC[C@]12C [3α-hydroxy-5β-pregnan-20-one]
- potentiation of GABA-induced chloride currents [1]: potentiators of GABA-induced chloride currents
- activity in vivo as steroid anesthetics [2]: active in vivo as steroid anesthetics
- potentiation of muscimol-stimulated chloride uptake (rat synaptoneurosomes): potentiators of muscimol-stimulated chloride uptake

Compound: C[C@]12CCC(=O)C=C1CC[C@@H]1[C@@H]2[C@@H](O)C[C@@]2(C)[C@H]1CC[C@]2(O)C(=O)CO [Cortisol]
- GABA-induced chloride currents ([3]; nanomolar concentrations): inhibits these same currents
- GABA-induced chloride currents ([3]; picomolar concentrations): augments GABA-induced chloride currents

Compound: CC(=O)[C@H]1CC[C@H]2[C@@H]3CC[C@H]4C[C@H](O)CC[C@]4(C)[C@H]3CC[C@]12C [Example 3α-OH-DHP, 3α-hydroxy-5α-pregnan-20-one]
- potentiation of GABA-induced chloride currents [1]: potentiators of GABA-induced chloride currents
- activity in vivo as steroid anesthetics [2]: active in vivo as steroid anesthetics
- potentiation of muscimol-stimulated chloride uptake (rat synaptoneurosomes): potentiators of muscimol-stimulated chloride uptake
- Potentiation of GABA currents, 0.1 μM ([4]; 0.1 μM compound): 110 ± 5% of control response to
- Potentiation of GABA currents, 1.0 μM ([4]; 1.0 μM compound): 195 ±16% of control response to
- channel open times and burst lengths / opening frequency [5]: increases the frequency of channel opening without altering the open times
- Concentration for Direct Cl^- Current Activation [6]: > 1 µM

Compound: CCOC(=O)c1ncn2c1CN(C)C(=O)c1cc(F)ccc1-2 [R015-1788 (flumazenil)]
- effect on steroid responses (benzodiazepine receptors): failed to find an effect

Compound: C[C@]12CC[C@@H](O)C[C@@H]1CC[C@@H]1[C@@H]2CC[C@]2(C)[C@@H](C(=O)CO)CC[C@@H]12 [THDOC, 5α-pregnane-3α, 21-diol-20-one]
- GABA-mediated neuronal inhibition [7]: augment GABA-mediated neuronal inhibition
- anxiolytic and sedative activity [8]: both anxiolytic and sedative activity
- sleep induction and nonREM sleep [9]: induce sleep and increase nonREM sleep

Compound: CC(=O)[C@H]1CC[C@H]2[C@@H]3CC[C@H]4C[C@H](O)CC[C@]4(C)[C@H]3C(=O)C[C@]12C [alphaxalone]
- time course of GABA-mediated inhibitory synaptic responses [10]: prolongs the time course of GABA-mediated inhibitory synaptic responses
- burst length of GABA-gated channels (GABA-gated channels): significantly prolongs the burst length of GABA-gated channels
- single channel conductance (GABA-gated channels): without changing the single channel conductance
- peak IPSC amplitude or rise time (GABAA receptors [11]): without change in peak IPSC amplitude or rise time
- prolongation of IPSC decay (GABAA receptors [11]): 5-8 fold

Compound: CN1CCc2cc3c(cc2[C@H]1[C@@H]1OC(=O)c2c1ccc1c2OCO1)OCO3 [bicuculline]
- block of steroid gated currents (GABAA receptors [12]): blocked

Compound: C[C@]12CC[C@H](OS(=O)(=O)O)CC1=CC[C@@H]1[C@@H]2CC[C@]2(C)C(=O)CC[C@@H]12 [dehydroepiandrosterone sulfate (DHEAS), dehydroepiandrosterone sulfate]
- GABA currents (GABA currents): inhibit GABA currents
- TBPS binding (picrotoxin site): not DHEAS

Compound: CCCC(C)C1(CC)C(=O)NC(=O)NC1=O (stereo not shown) [pentobarbital]
- channel open times and burst lengths / opening frequency [5]: prolongs channel open times and burst lengths

Compound: CC(=O)C1CCC2C3CC=C4CC(OS(=O)(=O)O)CCC4(C)C3CCC12C (stereo not shown) [pregnenolone sulfate]
- GABA currents (GABA currents): inhibit GABA-induced chloride currents
- GABA currents (GABA currents; listed as pregnenolone sulfate (PS)): inhibit GABA currents
- opening frequency of the channels (GABAA channels): decreasing the opening frequency of the channels
- TBPS binding (picrotoxin site): inhibits TBPS binding at the picrotoxin site

Compound: CC(=O)[C@H]1CC[C@H]2[C@@H]3CCC4=CC(=O)CC[C@]4(C)[C@H]3CC[C@]12C [progesterone]
- usefulness for treating premenstrual syndrome [13]: often useful

Compound: picrotoxin
- opening frequency of the channels (GABAA channels): decreasing the opening frequency of the channels
